Publication doi:10.1101/2020.06.11.145995v1 (biorxiv, 2020)
Like-named read-outs stand apart in the source and are kept apart here.

Tests used:
Experiment in all cases: biochemical
ACVR2B = ACVR2B (Homo sapiens, UniProt Q13705)
AKT2 = AKT2 (Homo sapiens, UniProt P31751)
AURKA = AURKA (Homo sapiens, UniProt O14965)
BMPR1A = BMPR1A (Homo sapiens, UniProt P36894)
BRSK1 = BRSK1 (Homo sapiens, UniProt Q8TDC3)
BTK = BTK (Homo sapiens, UniProt Q06187)
CAMK2A = CAMK2A (Homo sapiens, UniProt Q9UQM7)
CASK = CASK (Homo sapiens, UniProt O14936)
CDK11 = CDK11 (Homo sapiens, UniProt Q9BWU1)
CHEK1 = CHEK1 (Homo sapiens, UniProt O14757)
CLK2 = CLK2 (Homo sapiens, UniProt P49760)
CLK4 = CLK4 (Homo sapiens, UniProt Q9HAZ1)
CSK = CSK (Homo sapiens, UniProt P41240)
CSNK1G2 = CSNK1G2 (Homo sapiens, UniProt P78368)
CSNK2A2 = CSNK2A2 (Homo sapiens, UniProt P19784)
EGFR(L858R) = EGFR(L858R) (Homo sapiens, UniProt P00533, L858R)
GSK3A = GSK3A (Homo sapiens, UniProt P49840)
INSR = INSR (Homo sapiens, UniProt P06213)
JNK2 = JNK2 (Homo sapiens, UniProt P45984)
KIT(D816H) = KIT(D816H) (Homo sapiens, UniProt P10721, D816H)
LATS1 = LATS1 (Homo sapiens, UniProt O95835)
LKB1 = LKB1 (Homo sapiens, UniProt Q15831)
MAP4K2 = MAP4K2 (Homo sapiens, UniProt Q12851)
MARK4 = MARK4 (Homo sapiens, UniProt Q96L34)
MELK = MELK (Homo sapiens, UniProt Q14680)
MERTK = MERTK (Homo sapiens, UniProt Q12866)
MET(Y1235D) = MET(Y1235D) (Homo sapiens, UniProt P08581, Y1235D)
MST1 = MST1 (Homo sapiens, UniProt Q13043)
MST1R = MST1R (Homo sapiens, UniProt Q04912)
NUAK1 = NUAK1 (Homo sapiens, UniProt O60285)
[1] = read-out: CPT-1-70-1 (1uM) % control
[2] = read-out: HYJ-2-002-1 (1uM) % control

Chain of LKB1 (Q15831 whole entry): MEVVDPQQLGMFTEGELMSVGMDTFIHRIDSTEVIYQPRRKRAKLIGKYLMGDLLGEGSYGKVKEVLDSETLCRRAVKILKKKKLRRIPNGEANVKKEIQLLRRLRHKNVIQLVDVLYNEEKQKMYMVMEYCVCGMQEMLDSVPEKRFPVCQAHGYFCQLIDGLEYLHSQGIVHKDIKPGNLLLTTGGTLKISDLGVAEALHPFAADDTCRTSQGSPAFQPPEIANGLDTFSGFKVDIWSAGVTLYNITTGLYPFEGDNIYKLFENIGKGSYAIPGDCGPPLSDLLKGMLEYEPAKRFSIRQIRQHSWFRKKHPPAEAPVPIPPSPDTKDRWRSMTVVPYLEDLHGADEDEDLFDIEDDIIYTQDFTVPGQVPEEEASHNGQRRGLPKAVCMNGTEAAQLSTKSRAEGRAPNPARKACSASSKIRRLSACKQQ
Chain of LATS1 (O95835 whole entry): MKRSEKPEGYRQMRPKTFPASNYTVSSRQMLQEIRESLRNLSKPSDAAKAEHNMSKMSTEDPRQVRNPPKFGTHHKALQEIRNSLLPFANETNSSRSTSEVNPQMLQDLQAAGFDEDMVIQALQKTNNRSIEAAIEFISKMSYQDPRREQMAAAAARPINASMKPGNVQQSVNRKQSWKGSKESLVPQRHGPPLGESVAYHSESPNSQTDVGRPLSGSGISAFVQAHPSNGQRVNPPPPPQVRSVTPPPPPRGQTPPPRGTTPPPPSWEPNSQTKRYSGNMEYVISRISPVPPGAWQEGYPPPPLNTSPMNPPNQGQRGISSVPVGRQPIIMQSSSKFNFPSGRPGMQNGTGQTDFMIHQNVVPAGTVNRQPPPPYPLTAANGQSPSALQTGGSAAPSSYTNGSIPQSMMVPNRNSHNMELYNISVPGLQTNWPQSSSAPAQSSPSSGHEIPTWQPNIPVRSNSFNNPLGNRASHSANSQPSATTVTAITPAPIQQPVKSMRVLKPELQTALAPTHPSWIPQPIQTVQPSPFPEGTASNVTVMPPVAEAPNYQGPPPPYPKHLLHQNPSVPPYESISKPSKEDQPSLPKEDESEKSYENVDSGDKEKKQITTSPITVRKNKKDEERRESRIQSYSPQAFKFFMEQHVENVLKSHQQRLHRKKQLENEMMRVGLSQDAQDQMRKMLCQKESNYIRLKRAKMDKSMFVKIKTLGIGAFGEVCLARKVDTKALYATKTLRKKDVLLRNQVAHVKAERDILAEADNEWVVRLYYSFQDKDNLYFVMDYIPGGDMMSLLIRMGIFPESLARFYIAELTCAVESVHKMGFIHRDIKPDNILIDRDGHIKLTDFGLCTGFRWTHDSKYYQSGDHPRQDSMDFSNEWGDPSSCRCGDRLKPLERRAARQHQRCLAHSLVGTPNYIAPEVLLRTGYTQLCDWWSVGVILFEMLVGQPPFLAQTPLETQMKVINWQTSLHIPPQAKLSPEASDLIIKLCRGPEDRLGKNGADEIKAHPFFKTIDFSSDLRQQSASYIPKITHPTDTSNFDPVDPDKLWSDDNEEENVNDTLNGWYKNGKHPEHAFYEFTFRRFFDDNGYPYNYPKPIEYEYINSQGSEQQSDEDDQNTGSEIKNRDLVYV
Chain of ACVR2B (Q13705 whole entry): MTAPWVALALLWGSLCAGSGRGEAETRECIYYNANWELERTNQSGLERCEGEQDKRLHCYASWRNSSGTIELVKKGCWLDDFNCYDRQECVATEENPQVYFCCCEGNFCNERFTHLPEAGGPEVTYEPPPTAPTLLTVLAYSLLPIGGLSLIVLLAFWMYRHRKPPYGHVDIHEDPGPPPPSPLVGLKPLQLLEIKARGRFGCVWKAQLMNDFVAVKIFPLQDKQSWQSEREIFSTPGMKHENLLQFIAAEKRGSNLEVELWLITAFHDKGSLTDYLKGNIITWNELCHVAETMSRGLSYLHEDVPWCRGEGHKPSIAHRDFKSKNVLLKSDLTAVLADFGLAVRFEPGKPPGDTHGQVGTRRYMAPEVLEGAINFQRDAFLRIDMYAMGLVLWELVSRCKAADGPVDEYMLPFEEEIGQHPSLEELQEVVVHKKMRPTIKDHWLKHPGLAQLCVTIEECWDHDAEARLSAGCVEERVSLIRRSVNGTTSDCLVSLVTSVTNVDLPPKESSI
Chain of KIT(D816H) (P10721 whole entry D816H): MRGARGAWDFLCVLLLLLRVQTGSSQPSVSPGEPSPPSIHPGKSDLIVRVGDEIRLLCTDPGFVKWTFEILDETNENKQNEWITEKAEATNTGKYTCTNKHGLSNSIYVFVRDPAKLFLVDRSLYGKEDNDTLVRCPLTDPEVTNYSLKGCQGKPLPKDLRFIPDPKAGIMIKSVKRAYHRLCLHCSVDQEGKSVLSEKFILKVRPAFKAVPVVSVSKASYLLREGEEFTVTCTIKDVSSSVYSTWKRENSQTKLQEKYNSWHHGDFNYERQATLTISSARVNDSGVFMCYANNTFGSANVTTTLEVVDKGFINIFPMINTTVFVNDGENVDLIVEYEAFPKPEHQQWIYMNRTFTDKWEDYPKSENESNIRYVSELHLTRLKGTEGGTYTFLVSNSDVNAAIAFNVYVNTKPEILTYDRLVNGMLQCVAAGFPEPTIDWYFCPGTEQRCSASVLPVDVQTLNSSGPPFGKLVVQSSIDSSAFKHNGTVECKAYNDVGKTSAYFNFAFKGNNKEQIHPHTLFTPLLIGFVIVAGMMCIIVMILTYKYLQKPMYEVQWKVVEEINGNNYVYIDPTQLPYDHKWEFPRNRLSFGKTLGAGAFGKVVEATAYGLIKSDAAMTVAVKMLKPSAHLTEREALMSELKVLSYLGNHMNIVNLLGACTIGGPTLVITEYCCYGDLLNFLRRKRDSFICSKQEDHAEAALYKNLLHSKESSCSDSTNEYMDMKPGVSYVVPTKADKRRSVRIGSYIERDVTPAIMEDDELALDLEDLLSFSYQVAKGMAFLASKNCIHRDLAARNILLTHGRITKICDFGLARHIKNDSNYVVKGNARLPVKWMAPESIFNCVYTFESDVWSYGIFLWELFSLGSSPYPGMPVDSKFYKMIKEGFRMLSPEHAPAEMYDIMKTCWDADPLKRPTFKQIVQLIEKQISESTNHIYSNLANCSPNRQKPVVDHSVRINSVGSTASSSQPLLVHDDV
Chain of BMPR1A (P36894 whole entry): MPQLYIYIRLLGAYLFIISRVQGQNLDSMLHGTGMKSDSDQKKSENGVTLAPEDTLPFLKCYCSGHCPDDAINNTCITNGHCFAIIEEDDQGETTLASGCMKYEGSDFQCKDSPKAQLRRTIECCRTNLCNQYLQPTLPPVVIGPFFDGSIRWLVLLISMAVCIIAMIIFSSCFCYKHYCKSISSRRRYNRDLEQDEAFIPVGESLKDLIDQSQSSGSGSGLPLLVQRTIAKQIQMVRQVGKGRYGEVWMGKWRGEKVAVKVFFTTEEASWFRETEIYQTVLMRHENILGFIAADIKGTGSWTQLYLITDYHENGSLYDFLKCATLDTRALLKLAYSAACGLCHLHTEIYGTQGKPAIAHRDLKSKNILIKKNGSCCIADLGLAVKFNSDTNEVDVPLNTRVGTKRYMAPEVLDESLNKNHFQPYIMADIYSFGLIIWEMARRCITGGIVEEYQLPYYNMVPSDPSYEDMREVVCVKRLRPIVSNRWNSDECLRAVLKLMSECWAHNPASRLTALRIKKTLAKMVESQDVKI
Chain of MST1R (Q04912 whole entry): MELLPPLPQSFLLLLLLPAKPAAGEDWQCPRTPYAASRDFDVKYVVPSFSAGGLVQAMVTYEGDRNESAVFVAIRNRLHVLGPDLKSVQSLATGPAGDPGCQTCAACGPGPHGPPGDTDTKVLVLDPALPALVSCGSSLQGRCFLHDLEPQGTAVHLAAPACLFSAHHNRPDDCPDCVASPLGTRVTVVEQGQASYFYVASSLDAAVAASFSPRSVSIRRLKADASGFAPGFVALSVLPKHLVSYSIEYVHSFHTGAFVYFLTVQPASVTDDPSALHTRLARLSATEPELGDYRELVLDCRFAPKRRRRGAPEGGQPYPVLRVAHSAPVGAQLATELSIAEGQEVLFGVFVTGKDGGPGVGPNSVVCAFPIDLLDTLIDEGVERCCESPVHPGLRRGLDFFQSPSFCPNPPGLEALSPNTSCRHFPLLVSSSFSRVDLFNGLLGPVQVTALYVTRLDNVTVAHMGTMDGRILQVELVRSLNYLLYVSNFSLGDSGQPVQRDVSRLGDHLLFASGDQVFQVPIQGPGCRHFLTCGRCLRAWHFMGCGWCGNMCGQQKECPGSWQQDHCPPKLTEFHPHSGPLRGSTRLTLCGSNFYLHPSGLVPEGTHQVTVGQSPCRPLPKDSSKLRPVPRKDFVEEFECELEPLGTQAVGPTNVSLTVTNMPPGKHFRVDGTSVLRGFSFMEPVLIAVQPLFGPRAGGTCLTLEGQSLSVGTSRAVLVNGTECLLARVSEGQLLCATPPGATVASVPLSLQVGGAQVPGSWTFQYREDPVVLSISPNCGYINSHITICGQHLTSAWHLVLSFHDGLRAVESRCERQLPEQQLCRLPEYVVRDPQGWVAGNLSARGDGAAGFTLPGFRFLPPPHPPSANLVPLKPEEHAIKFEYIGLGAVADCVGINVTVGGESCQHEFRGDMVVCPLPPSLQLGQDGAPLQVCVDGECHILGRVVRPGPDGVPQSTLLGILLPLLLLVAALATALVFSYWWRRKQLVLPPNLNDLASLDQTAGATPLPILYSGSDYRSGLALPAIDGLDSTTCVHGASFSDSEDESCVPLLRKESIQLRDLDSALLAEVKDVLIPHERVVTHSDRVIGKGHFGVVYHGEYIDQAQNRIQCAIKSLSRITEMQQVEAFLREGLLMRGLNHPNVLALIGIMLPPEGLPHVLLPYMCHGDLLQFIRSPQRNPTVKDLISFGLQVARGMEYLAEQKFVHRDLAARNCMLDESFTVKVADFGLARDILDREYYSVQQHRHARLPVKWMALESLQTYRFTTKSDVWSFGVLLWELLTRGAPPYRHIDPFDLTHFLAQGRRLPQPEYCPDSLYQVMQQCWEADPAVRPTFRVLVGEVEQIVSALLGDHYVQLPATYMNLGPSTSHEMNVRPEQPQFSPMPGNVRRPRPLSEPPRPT

Structure (SMILES): CN1CCN(c2ccc(Nc3nc(Oc4ccc(NC(=O)CCl)cc4)c4cc[nH]c4n3)cc2)CC1 [CPT1-70-1]
- remaining activity at 1 µM (ACVR2B; [1]): 100%
- remaining activity at 1 µM (AKT2; [1]): 100%
- remaining activity at 1 µM (AURKA; [1]): 37%
- remaining activity at 1 µM (BMPR1A; [1]): 100%
- remaining activity at 1 µM (BRSK1; [1]): 100%
- remaining activity at 1 µM (BTK; [1]): 7%
- remaining activity at 1 µM (CAMK2A; [1]): 95%
- remaining activity at 1 µM (CASK; [1]): 100%
- remaining activity at 1 µM (CDK11; [1]): 100%
- remaining activity at 1 µM (CHEK1; [1]): 92%
- remaining activity at 1 µM (CLK2; [1]): 22%
- remaining activity at 1 µM (CLK4; [1]): 6.5%
- remaining activity at 1 µM (CSK; [1]): 93%
- remaining activity at 1 µM (CSNK1G2; [1]): 0.7%
- remaining activity at 1 µM (CSNK2A2; [1]): 28%
- remaining activity at 1 µM (EGFR(L858R); [1]): 22%
- remaining activity at 1 µM (GSK3A; [1]): 100%
- remaining activity at 1 µM (INSR; [1]): 17%
- remaining activity at 1 µM (JNK2; [1]): 13%
- remaining activity at 1 µM (KIT(D816H); [1]): 83%
- remaining activity at 1 µM (LATS1; [1]): 77%
- remaining activity at 1 µM (LKB1; [1]): 76%
- remaining activity at 1 µM (MAP4K2; [1]): 25%
- remaining activity at 1 µM (MARK4; [1]): 1.8%
- remaining activity at 1 µM (MELK; [1]): 16%
- remaining activity at 1 µM (MERTK; [1]): 70%
- remaining activity at 1 µM (MET(Y1235D); [1]): 23%
- remaining activity at 1 µM (MST1; [1]): 100%
- remaining activity at 1 µM (MST1R; [1]): 100%
- remaining activity at 1 µM (NUAK1; [1]): 9.3%

Structure (SMILES): CCN1CCN(Cc2ccc(NC(=O)c3ccc(C)c(CCc4cnc5[nH]ccc5c4OC)c3)cc2C(F)(F)F)CC1 [HYJ-2-002-1]
- remaining activity at 1 µM (ACVR2B; [2]): 100%
- remaining activity at 1 µM (AKT2; [2]): 95%
- remaining activity at 1 µM (AURKA; [2]): 100%
- remaining activity at 1 µM (BMPR1A; [2]): 100%
- remaining activity at 1 µM (BRSK1; [2]): 97%
- remaining activity at 1 µM (BTK; [2]): 8.1%
- remaining activity at 1 µM (CAMK2A; [2]): 100%
- remaining activity at 1 µM (CASK; [2]): 100%
- remaining activity at 1 µM (CDK11; [2]): 14%
- remaining activity at 1 µM (CHEK1; [2]): 100%
- remaining activity at 1 µM (CLK2; [2]): 85%
- remaining activity at 1 µM (CLK4; [2]): 69%
- remaining activity at 1 µM (CSK; [2]): 0.8%
- remaining activity at 1 µM (CSNK1G2; [2]): 45%
- remaining activity at 1 µM (CSNK2A2; [2]): 100%
- remaining activity at 1 µM (EGFR(L858R); [2]): 3.2%
- remaining activity at 1 µM (GSK3A; [2]): 78%
- remaining activity at 1 µM (INSR; [2]): 92%
- remaining activity at 1 µM (JNK2; [2]): 1.8%
- remaining activity at 1 µM (KIT(D816H); [2]): 43%
- remaining activity at 1 µM (LATS1; [2]): 100%
- remaining activity at 1 µM (LKB1; [2]): 100%
- remaining activity at 1 µM (MAP4K2; [2]): 4.6%
- remaining activity at 1 µM (MARK4; [2]): 94%
- remaining activity at 1 µM (MELK; [2]): 48%
- remaining activity at 1 µM (MERTK; [2]): 30%
- remaining activity at 1 µM (MET(Y1235D); [2]): 83%
- remaining activity at 1 µM (MST1; [2]): 89%
- remaining activity at 1 µM (MST1R; [2]): 100%
- remaining activity at 1 µM (NUAK1; [2]): 65%
